In patent US20070042971A1, “Crystalline compound of 4'-demethyl-4'-phosphate-2", 3"-bispentafluorophenoxy-acetyl-4", 6"-ethylidene-beta-d-epipodophyllotoxin glucoside either in its free form or solvated with ethanol” (Pierre Fabre Medicament, priority 2003, published 2007):
Values after ≈ are worked out from the molar mass of the structure shown. “Also recorded” adds a separate entry of the source. Read-outs that look alike come from different tables or passages of the source.

Columns and labels:
P388 leukemia [1] = conditions: mice implanted with the P388 leukemia model; cited from earlier work
P388 leukemia [2] = tested on: P388 leukemia
[3] = Solubility in water and ethanol; assay type: physicochemical
[4] = cited from earlier work
[5] = powdered form; for % of degradation products after 1 month at 30° C. with 75% relative humidity: open bottle
[6] = listed as hemiethanolate compound of formula 3 in crystalline form

4′-demethylepipodophyllotoxin 2″,3″-bispentafluoro-phenoxyacetyl-4″,6″-ethylidene-β-D-glucoside 4′-phosphate [Compound of formula 1]
survival (P388 leukemia [1]): long survival | stability on conservation (conserved at 4° C. and, a fortiori, at ambient temperature): degrades over time | stability (usual conditions of neutral and acid pH and of temperature): stable

COc1cc(C2c3cc4c(cc3[C@@H](OC3OC5COC(C)OC5C(OC(=O)COc5c(F)c(F)c(F)c(F)c5F)C3OC(=O)COc3c(F)c(F)c(F)c(F)c3F)[C@H]3COC(=O)C23)OCO4)cc(OC)c1OP(=O)(O)O (stereo partly drawn) [Crystalline formula 2, 4′-demethylepipodophyllotoxin 2″,3″-bispentafluorophenoxyacetyl-4″,6″-ethylidene-β-D-glucoside 4′-phosphate]
in vivo antitumor activity (in words) (P388 leukemia [2]; mouse, in vivo): exhibits the required pharmacological activity; also recorded: high-level antitumor activity | prolongation of the survival of the animals (P388 leukemia [2]; mouse, in vivo, 40 mg/kg): 43% | prolongation of the survival of the animals (P388 leukemia [2]; mouse, in vivo, 160 mg/kg): 200% | T/C values (%) (P388 leukemia [2]; mouse, in vivo, ip, 40 mg/kg): 143% | T/C values (%) (P388 leukemia [2]; mouse, in vivo, ip, 80 mg/kg): 157% | T/C values (%) (P388 leukemia [2]; mouse, in vivo, ip, 160 mg/kg): 300%

COc1cc(C2c3cc4c(cc3[C@@H](OC3OC5COC(C)OC5C(OC(=O)COc5c(F)c(F)c(F)c(F)c5F)C3OC(=O)COc3c(F)c(F)c(F)c(F)c3F)[C@H]3COC(=O)C23)OCO4)cc(OC)c1OP(=O)(O)O (stereo partly drawn) [Compound of formula 2 in amorphous form, 4′-demethylepipodophyllotoxin 2″,3″-bispentafluoro-phenoxyacetyl-4″,6″-ethylidene-β-D-glucoside 4′-phosphate]
solubility in ethanol (in words) ([3]; ethanol): soluble | solubility in water (in words) ([3]; water): is not | antitumor activity (in words) (P388 leukemia [2]; mouse, in vivo): does not induce any significant antitumor activity | in vivo antitumor activity (in words) (P388 leukemia [2]; mouse, in vivo): did not have the in vivo activity | T/C values (%) (P388 leukemia [2]; mouse, in vivo, ip, 40 mg/kg): 100% | T/C values (%) (P388 leukemia [2]; mouse, in vivo, ip, 80 mg/kg): 114% | T/C values (%) (P388 leukemia [2]; mouse, in vivo, ip, 160 mg/kg): 157%

COc1cc([C@@H]2c3cc4c(cc3[C@@H](O[C@@H]3O[C@@H]5CO[C@@H](C)O[C@H]5[C@H](O)[C@H]3O)[C@H]3COC(=O)[C@H]23)OCO4)cc(OC)c1OP(=O)(O)O [Etopophos]
solubility in water [4]: 100 mg/mL (≈ 150 mM)

hemiethanolate of 4′-demethylepipodophyllotoxin 2″,3″-bispentafluoro-phenoxyacetyl-4″,6″-ethylidene-β-D-glucoside 4′-phosphate
% of degradation products after 1 month at 30° C. with 75% relative humidity [5]: 1.8% | % of degradation products after 1 month at 30° C. with 75% relative humidity [5, 6]: 1.8% | % of degradation products after 1 month at 40° C. in a closed bottle [5]: 1.5% | % of degradation products after 1 month at 40° C. in a closed bottle [5, 6]: 1.5% | in vivo antitumor activity (in words) (P388 leukemia [2]; P388 leukemia model, overall, listed as compound of formula 3 in crystalline form): high-level antitumor activity | in vivo antitumor activity (in words) (P388 leukemia [2]; P388 leukemia model, overall, listed as hemiethanolate of formula 3): exhibits the required pharmacological activity | prolongation of the survival of the animals (P388 leukemia [2]; dose 40 mg/kg): 43% | T/C values (%) (P388 leukemia [2]; dose 40 mg/kg, single intraperitoneal injection on day 1, median survival treated/control x 100): 143% | T/C values (%) (P388 leukemia [2]; dose 80 mg/kg, single intraperitoneal injection on day 1, median survival treated/control x 100): 143% | prolongation of the survival of the animals (P388 leukemia [2]; dose 160 mg/kg): 229% | T/C values (%) (P388 leukemia [2]; dose 160 mg/kg, single intraperitoneal injection on day 1, median survival treated/control x 100): 329%
